Assay results from publication PMC9556364, “The effect of rifampin on the pharmacokinetics of famitinib in healthy subjects” (Cancer Chemotherapy and Pharmacology, 2022).
“And” between values parts separate entries of the source, which are not always exact repeats. Equal entries are not always repeated.

Tests used:
[1] = cited from earlier work; for Decrease of AUC when administered simultaneously with rifampin / Decrease of Cmax when administered simultaneously with rifampin: ref 21 (imitinib), 22 (gefitinib), 23 (erlotinib), 24 (afatinib)
CYP3A4 = tested on: CYP3A4; design: method as in PMID 23126373; details: recombinant human isozymes, microsomal chemical inhibition; cited from earlier work
[2] = Safety and tolerability (treatment emergent adverse events, CTCAE v5.0) in the DDI study; details: for Subjects with treatment-related TEAEs: famitinib alone Days 1–9 (1/21), rifampin alone Days 10–15 (3/21), combination Days 16–23 (4/20)
Experimental: Safety and tolerability were evaluated by monitoring vital signs, physical examination, laboratory tests, electrocardiogram (ECG) and adverse events (AEs). Vital signs, including body temperature, blood pressure (BP) and heart rate, were measured and ECG were performed during baseline period, before drug administration and at 4, 24, 48, 192 h after famitinib administration. Clinical laboratory tests were conducted at screening, day 9, 15, and prior to discharge. AEs, including all subjective symptoms reported by subjects and objective signs observed by clinical investigators, were collected after dosing throughout the study.
Safety parameters of the safety analysis sets were summarized using descriptive statistics. AEs were graded according to Common Terminology Criteria for Adverse Events (CTCAE, version 5.0) and coded using Medical Dictionary for Regulatory Activities (MedDRA, version 19.0) System Organ Class (SOC) and Preferred Terms (PT).

P-gp = molecular target: T1, P-gp (Homo sapiens, UniProt P08183); test: In vitro P-gp interaction study in Caco-2 cells; type: in vitro ADME
T1 construct: endogenous in cells; host or cells: Caco-2
Text: Except as a strong CYP3A inducer, rifampin is also recognized as a substrate and inducer of permeability glycoprotein (P-gp), an important ATP-binding cassette transporter, upon multiple dosing. […] Therefore, the interaction between famitinib and P-gp as well as OATP needs to be considered, to evaluate whether the changes of famitinib exposure caused by the strong CYP3A inducer are affected.

[3] = Drug-drug interaction study: plasma pharmacokinetics of single oral famitinib 25 mg alone and with steady-state rifampin 600 mg once daily (LC-MS/MS, noncompartmental analysis); details: for CL/F / AUC(0-t) / AUC(0-inf) / Cmax / k el: geometric mean (geometric CV, %); for AUC(0-t): AUC0–t; for AUC(0-inf): AUC0–∞; for Tmax: median (min, max); for k el: λz
Experimental: The DDI study was an open-label, self-contrast study comprising the following two periods: period 1 (Days 1–9), administration of a single oral dose of famitinib 25 mg alone in the morning of study day 1; period 2 (Days 10–23), repeated administration of oral rifampin 600 mg once daily for 14 days in the morning of days 10–23, and co-administration of a single dose of famitinib 25 mg on Day 16. […] In the two periods, oral doses of famitinib were administered after an overnight fast (at least 10 h) with 240 mL room-temperature water. Subjects were forbidden to drink water within 1 h before and after taking famitinib, and the lunch and dinner were provided at 4 h and 8 h,, respectively, post-drug administration (Day 1, 16). In the second period, subjects received rifampin in the fasting state with 240 mL water and had regular meals 1 h after the dose. Cigarettes, caffeinated drinks and alcoholic products were prohibited during the whole trial period, and when the subjects stayed in the study center (Days 1–4, 10–23), the only food permitted was prepared and provided at predetermined times by the researchers.
Samples were centrifuged within 1 h at 1500xg for 10 min at 4℃ to separate the plasma, which was divided into two aliquots (drug monitoring at least 800ul and backup) and stored at – 80 °Cuntil analysis.
Plasma concentrations of famitinib were analysed using a validated liquid chromatography-tandem mass spectrometry (LC–MS/MS) method [9, 15] at Frontage Laboratories Co., Ltd (Shanghai, China). The calibration curve for famitinib covered ranges of 0.050-100 ng/ml. The low limit of qualification (LLOQ) was 0.050 ng/ml.
Pharmacokinetic (PK) parameters for famitinib in plasma were estimated by noncompartmental analysis using Phoenix WinNonlin (version 7.0, Pharsight Corporation, St Louis, MO, USA). The primary endpoints were the maximum plasma famitinib concentration (Cmax), the area under the plasma concentration–time curve from time 0 to the last measured time point (AUC0–t), and the area under the plasma concentration–time curve from time 0 to infinity (AUC0–∞). The secondary PK parameters included time to Cmax (Tmax) and the elimination half-life (T1/2), the terminal exponential rate constant (λz), the apparent total body clearance (CL/F). Cmax and Tmax were observed directly from the original concentration–time data.
All subjects who received the study drug and for whom at least one PK parameter data was available were included in the PK analysis sets. The safety analysis sets included subjects who received at least one dose of famitinib or rifampin. Statistical analysis was performed using SAS 9.4 (SAS Inc., Cary, NC, USA). […] The measurement data were expressed as mean ± standard deviation (SD), and categorical variables were described by the percentage.

[4] = cited from earlier work
[5] = famitinib 25 mg with rifampin 600 mg vs alone
[6] = famitinib + rifampin period, individual subjects, LLOQ 0.050
[7] = famitinib alone period, individual subjects
[8] = male, human, plasma, po, 25 mg, famitinib 25 mg + rifampin, N = 20
[9] = male, human, plasma, po, 25 mg, famitinib 25 mg alone, N = 21
[10] = healthy volunteers, vs sunitinib alone

T1 sequence (P08183 whole entry): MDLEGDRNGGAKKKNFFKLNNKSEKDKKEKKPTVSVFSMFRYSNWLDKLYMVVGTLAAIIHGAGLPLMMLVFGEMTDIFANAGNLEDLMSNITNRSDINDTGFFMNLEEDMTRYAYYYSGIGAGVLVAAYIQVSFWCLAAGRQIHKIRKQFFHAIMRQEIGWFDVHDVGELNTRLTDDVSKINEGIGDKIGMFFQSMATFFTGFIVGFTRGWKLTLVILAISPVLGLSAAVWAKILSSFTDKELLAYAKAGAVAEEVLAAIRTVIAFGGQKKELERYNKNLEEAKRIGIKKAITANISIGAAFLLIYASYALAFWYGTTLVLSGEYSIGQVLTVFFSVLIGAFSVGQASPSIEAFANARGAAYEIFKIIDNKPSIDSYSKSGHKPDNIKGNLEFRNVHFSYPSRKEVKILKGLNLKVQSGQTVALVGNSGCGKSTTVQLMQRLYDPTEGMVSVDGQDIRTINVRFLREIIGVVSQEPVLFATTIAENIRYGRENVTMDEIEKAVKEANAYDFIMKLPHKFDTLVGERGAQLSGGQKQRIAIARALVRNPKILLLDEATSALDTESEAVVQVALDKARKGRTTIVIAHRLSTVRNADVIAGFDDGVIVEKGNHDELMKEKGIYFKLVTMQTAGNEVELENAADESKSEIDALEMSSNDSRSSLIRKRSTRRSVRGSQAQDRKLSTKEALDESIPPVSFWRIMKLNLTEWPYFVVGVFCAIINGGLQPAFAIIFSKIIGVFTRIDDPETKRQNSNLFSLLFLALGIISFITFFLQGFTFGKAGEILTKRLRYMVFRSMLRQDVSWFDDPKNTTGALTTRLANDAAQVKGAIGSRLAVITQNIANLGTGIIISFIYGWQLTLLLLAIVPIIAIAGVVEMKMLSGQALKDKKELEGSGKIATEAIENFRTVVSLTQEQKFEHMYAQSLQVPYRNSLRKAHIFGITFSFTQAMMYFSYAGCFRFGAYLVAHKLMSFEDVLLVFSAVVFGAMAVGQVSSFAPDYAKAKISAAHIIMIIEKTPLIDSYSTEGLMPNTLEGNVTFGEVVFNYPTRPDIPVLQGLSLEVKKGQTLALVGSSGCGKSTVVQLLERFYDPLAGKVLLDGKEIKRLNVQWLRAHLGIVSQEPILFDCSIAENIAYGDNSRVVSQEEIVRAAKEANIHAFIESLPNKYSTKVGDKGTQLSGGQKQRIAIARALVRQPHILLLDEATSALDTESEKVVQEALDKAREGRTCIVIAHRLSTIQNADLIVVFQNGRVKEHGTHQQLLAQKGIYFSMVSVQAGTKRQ

## CN(C)C/C=C/C(=O)Nc1cc2c(Nc3ccc(F)c(Cl)c3)ncnc2cc1O[C@H]1CCOC1 [afatinib]
[1]
  Decrease of AUC when administered simultaneously with rifampin: 34%
  Decrease of Cmax when administered simultaneously with rifampin: 22%

## CCN(CC)CCN1CCc2[nH]c(/C=C3\C(=O)Nc4ccc(F)cc43)c(C)c2C1=O [famitinib, Famitinib malate]
CYP3A4
  Pathway most important to metabolic clearance: CYP3A4-mediated N-desethylation is most important
[2]
  Subjects with treatment-related TEAEs: 4.8%
[2]; single dose famitinib 25 mg, alone and in combination with multiple doses of rifampin
  Tolerability: well tolerated
[2]; whole study, 8/21 subjects, all grade 1–2
  Subjects reporting treatment emergent adverse events (TEAEs): 38.1%
P-gp
  P-gp substrate, inducer or inhibitor: neither a substrate, an inducer or inhibitor
[3]; famitinib 25 mg + rifampin, N = 20
  CL/F: 61.4 (16.5) L/h
[3]; famitinib 25 mg alone, N = 21
  CL/F: 18.9 (18.0) L/h
[3]; [5]
  Decrease of geometric mean AUC0–t in the presence of rifampin: 69%
  Decrease of geometric mean AUC0–∞ in the presence of rifampin: 69%
  Decrease of geometric mean Cmax in the presence of rifampin: 48%
[3]; [6]
  Plasma concentration of famitinib, 144h: BLQ<0.050 ng / mL
  Plasma concentration of famitinib, 192h: BLQ<0.050 ng / mL
  Plasma concentration of famitinib, before dosing: BLQ<0.050 ng / mL
[3]; [7]
  Plasma concentration of famitinib, 1h: 12.172 ng/mL and 10.070 ng/mL and 23.342 ng/mL and 11.725 ng/mL and 7.749 ng/mL and 13.952 ng/mL and 8.453 ng/mL and 16.495 ng/mL and 11.559 ng/mL and 9.713 ng/mL and 14.845 ng/mL and 9.794 ng/mL and 13.641 ng/mL and 7.456 ng/mL and 5.075 ng/mL
  Plasma concentration of famitinib, 2h: 19.290 ng/mL and 11.263 ng/mL and 27.171 ng/mL and 17.301 ng/mL and 11.179 ng/mL and 19.862 ng/mL and 16.456 ng/mL and 17.403 ng/mL and 19.212 ng/mL and 16.738 ng/mL and 25.161 ng/mL and 11.223 ng/mL and 13.668 ng/mL and 15.742 ng/mL and 7.198 ng/mL
  Plasma concentration of famitinib, 3h: 24.870 ng/mL and 24.032 ng/mL and 35.652 ng/mL and 17.196 ng/mL and 13.891 ng/mL and 21.638 ng/mL and 20.909 ng/mL and 26.523 ng/mL and 20.328 ng/mL and 19.378 ng/mL and 25.658 ng/mL and 13.587 ng/mL and 23.069 ng/mL and 22.375 ng/mL and 13.449 ng/mL
  Plasma concentration of famitinib, 4h: 28.028 ng/mL and 28.292 ng/mL and 40.156 ng/mL and 20.043 ng/mL and 16.081 ng/mL and 19.854 ng/mL and 21.159 ng/mL and 24.187 ng/mL and 24.994 ng/mL and 22.750 ng/mL and 36.134 ng/mL and 11.368 ng/mL and 18.316 ng/mL and 23.577 ng/mL and 15.599 ng/mL
  Plasma concentration of famitinib, 5h: 34.268 ng/mL and 39.992 ng/mL and 39.262 ng/mL and 34.731 ng/mL and 23.153 ng/mL and 38.641 ng/mL and 37.246 ng/mL and 34.840 ng/mL and 39.863 ng/mL and 36.023 ng/mL and 38.105 ng/mL and 23.878 ng/mL and 27.444 ng/mL and 47.892 ng/mL
  Plasma concentration of famitinib, 6h: 43.837 ng/mL and 41.218 ng/mL and 38.122 ng/mL and 30.476 ng/mL and 37.003 ng/mL and 33.261 ng/mL and 32.099 ng/mL and 44.461 ng/mL and 40.451 ng/mL and 44.411 ng/mL and 30.717 ng/mL and 31.790 ng/mL and 38.642 ng/mL
  Plasma concentration of famitinib, 8h: 36.756 ng/mL and 37.274 ng/mL and 37.931 ng/mL and 31.453 ng/mL and 34.655 ng/mL and 28.227 ng/mL and 26.193 ng/mL and 38.443 ng/mL and 33.433 ng/mL and 40.722 ng/mL and 30.892 ng/mL and 27.531 ng/mL and 41.552 ng/mL
[3]; famitinib alone period, individual subjects, LLOQ 0.050
  Plasma concentration of famitinib, before dosing: BLQ<0.050 ng / mL
[3]; human, plasma, oral, 25 mg, Plasma concentration of famitinib, famitinib alone period, individual subjects
  concentration at 6 h: 44.3 ng/mL
[3]; human, plasma, oral, 25 mg, Plasma concentration of famitinib, 8h, famitinib alone period, individual subjects
  concentration at 8 h: 42.1 ng/mL
[3]; human, plasma, oral, 25 mg, Plasma concentration of famitinib, 12h, famitinib alone period, individual subjects
  concentration at 12 h: 22.5 ng/mL
[3]; human, plasma, oral, 25 mg, Plasma concentration of famitinib, 24h, famitinib alone period, individual subjects
  concentration at 24 h: 14 ng/mL
[3]; human, plasma, oral, 25 mg, Plasma concentration of famitinib, 48h, famitinib alone period, individual subjects
  concentration at 48 h: 7.26 ng/mL
[3]; human, plasma, oral, Plasma concentration of famitinib, famitinib + rifampin period, individual subjects
  concentration at 6 h: 22 ng/mL
[3]; human, plasma, oral, Plasma concentration of famitinib, 144h, famitinib + rifampin period, individual subjects, LLOQ 0.050
  concentration at 144 h: 0.063 ng/mL
[3]; male, human, plasma, po, 25 mg
  half-life: 33.9 h
[3]; [8]
  AUC(0-t): 405 ng·h/mL
  AUC(0-inf): 407 ng·h/mL
  Tmax: 5.5 h
  k el: 1.08e-05 s⁻¹
[3]; [9]
  AUC(0-t): 1300 ng·h/mL
  AUC(0-inf): 1320 ng·h/mL
  Tmax: 6 h
  k el: 5.83e-06 s⁻¹
[3]; male, human, plasma, po, 25 mg, famitinib 25 mg + steady-state rifampin 600 mg once daily, N = 20
  Cmax: 20.1 ng/mL
[3]; male, human, plasma, po, 25 mg, famitinib 25 mg single oral dose alone, N = 21
  Cmax: 38.7 ng/mL
[4]; 25 mg famitinib, healthy subjects
  Mean time to maximum concentration (Tmax): 5.9 ± 3.8 h
[4]; 4–27 mg famitinib, cancer patients
  Time of peak concentration (Cmax) after a single oral administration: 3.3 to 5.3 h
[4]
  Effect of food on the pharmacokinetics: minimal effect
[4]; continuous dosing
  Accumulation ratio (Day28/Day1) of AUC0–24 h: 2.53
  Accumulation ratio (Day28/Day1) of Cmax: 2.15
[4]; human
  Elimination via biliary-fecal route: approximately 56.3 % of the administered dose

## C#Cc1cccc(Nc2ncnc3cc(OCCOC)c(OCCOC)cc23)c1 [erlotinib]
[1]
  Decrease of AUC when administered simultaneously with rifampin: 69%
  Decrease of Cmax when administered simultaneously with rifampin: 39%

## Cc1ccc(NC(=O)c2ccc(CN3CCN(C)CC3)cc2)cc1Nc1nccc(-c2cccnc2)n1 [imitinib]
[1]
  Decrease of AUC when administered simultaneously with rifampin: 74%
  Decrease of Cmax when administered simultaneously with rifampin: 54%

## COc1cc2ncnc(Nc3ccc(F)c(Cl)c3)c2cc1OCCCN1CCOCC1 [gefitinib]
[1]
  Decrease of AUC when administered simultaneously with rifampin: 83%
  Decrease of Cmax when administered simultaneously with rifampin: 65%

## CCN(CC)CCNC(=O)c1c(C)[nH]c(/C=C2\C(=O)Nc3ccc(F)cc32)c1C [sunitinib]
[1]; [10]
  Fold reduction in AUC on coadministration with rifampin: 4.8 fold
  Fold reduction in Cmax on coadministration with rifampin: 2.3 fold

## CO[C@H]1/C=C/O[C@@]2(C)Oc3c(C)c(O)c4c(O)c(c(/C=N/N5CCN(C)CC5)c(O)c4c3C2=O)NC(=O)/C(C)=C\C=C\[C@H](C)[C@H](O)[C@@H](C)[C@@H](O)[C@@H](C)[C@H](OC(C)=O)[C@@H]1C [rifampin, Rifampicin]
[2]
  Subjects with treatment-related TEAEs: 14.3%
